ChEMBL document CHEMBL5291721, “A preclinical secondary pharmacology resource illuminates target-adverse drug reaction associations of marketed drugs” (Nat Commun, 2023)

Assays:
[1] = biological target: Epidermal growth factor receptor (Homo sapiens, UniProt P00533); assay type: functional
[2] = biological target: T1, Alpha-2B adrenergic receptor (Homo sapiens, UniProt P18089)
T1 sequence (P18089 whole entry): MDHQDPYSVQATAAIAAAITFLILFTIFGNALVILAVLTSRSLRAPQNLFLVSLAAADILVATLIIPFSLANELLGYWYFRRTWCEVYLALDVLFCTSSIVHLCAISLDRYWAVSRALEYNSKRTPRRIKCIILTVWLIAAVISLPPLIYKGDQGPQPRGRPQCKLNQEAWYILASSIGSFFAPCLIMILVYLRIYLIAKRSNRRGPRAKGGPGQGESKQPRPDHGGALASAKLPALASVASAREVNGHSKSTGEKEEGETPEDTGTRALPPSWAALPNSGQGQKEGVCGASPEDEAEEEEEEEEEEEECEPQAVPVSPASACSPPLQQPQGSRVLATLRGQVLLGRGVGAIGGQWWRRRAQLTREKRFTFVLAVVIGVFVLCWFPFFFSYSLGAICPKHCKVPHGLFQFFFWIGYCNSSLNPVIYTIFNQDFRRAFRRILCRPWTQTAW

[3] = biological target: Sodium-dependent serotonin transporter (Homo sapiens, UniProt P31645)
Sequence of Sodium-dependent serotonin transporter (P31645 whole entry): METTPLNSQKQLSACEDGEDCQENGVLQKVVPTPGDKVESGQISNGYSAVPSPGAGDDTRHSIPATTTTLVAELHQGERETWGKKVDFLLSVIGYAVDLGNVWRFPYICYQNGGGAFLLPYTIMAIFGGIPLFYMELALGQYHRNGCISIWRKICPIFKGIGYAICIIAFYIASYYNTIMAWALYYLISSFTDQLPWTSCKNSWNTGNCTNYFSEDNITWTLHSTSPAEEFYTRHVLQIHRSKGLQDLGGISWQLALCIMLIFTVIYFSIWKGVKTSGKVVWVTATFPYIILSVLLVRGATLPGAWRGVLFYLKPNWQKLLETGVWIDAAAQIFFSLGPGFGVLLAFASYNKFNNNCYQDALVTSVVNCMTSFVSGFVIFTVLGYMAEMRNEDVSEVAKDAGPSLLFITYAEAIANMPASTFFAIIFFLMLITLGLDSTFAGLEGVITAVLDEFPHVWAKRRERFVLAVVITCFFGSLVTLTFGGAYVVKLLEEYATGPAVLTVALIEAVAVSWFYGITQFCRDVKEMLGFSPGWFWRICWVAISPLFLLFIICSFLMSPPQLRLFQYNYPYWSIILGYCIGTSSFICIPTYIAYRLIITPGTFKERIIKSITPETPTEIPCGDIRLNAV

[4] = biological target: T2, Alpha-1A adrenergic receptor (Homo sapiens, UniProt P35348); assay type: functional, cell-based
T2 sequence (P35348 whole entry): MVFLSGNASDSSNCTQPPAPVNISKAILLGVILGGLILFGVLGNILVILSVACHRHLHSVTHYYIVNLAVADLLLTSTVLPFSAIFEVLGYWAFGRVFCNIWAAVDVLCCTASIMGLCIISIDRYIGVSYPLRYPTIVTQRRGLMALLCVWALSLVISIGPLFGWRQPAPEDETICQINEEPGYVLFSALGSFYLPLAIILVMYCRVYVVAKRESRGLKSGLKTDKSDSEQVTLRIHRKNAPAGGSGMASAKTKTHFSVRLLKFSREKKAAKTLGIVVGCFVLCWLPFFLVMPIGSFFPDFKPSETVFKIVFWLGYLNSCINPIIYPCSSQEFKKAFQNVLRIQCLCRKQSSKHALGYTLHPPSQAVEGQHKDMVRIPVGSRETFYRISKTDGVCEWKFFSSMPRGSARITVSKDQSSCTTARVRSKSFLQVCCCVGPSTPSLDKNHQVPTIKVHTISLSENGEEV

[5] = biological target: cGMP-inhibited 3',5'-cyclic phosphodiesterase 3A (Homo sapiens, UniProt Q14432); assay type: functional
[6] = biological target: Prostaglandin G/H synthase 1 (Homo sapiens, UniProt P23219); assay type: functional
Sequence of Prostaglandin G/H synthase 1 (P23219 whole entry): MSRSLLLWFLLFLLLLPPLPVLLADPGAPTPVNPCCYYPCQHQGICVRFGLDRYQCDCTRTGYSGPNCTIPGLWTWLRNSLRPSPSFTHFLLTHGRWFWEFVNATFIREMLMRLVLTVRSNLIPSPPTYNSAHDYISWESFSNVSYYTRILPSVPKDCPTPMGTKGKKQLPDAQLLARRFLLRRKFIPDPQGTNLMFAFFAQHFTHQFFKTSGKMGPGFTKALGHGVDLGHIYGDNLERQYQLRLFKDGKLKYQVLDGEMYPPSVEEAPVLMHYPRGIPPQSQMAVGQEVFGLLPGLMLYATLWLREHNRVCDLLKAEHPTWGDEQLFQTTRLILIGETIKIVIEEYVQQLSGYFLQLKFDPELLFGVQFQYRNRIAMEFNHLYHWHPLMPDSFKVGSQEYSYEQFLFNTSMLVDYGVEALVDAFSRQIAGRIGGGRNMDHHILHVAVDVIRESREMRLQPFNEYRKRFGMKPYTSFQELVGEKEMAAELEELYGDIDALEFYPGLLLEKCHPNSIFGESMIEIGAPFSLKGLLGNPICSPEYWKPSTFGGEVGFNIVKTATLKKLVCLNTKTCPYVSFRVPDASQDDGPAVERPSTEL

B1 bradykinin receptor = biological target: T3, B1 bradykinin receptor (Homo sapiens, UniProt P46663)
T3 sequence (P46663 whole entry): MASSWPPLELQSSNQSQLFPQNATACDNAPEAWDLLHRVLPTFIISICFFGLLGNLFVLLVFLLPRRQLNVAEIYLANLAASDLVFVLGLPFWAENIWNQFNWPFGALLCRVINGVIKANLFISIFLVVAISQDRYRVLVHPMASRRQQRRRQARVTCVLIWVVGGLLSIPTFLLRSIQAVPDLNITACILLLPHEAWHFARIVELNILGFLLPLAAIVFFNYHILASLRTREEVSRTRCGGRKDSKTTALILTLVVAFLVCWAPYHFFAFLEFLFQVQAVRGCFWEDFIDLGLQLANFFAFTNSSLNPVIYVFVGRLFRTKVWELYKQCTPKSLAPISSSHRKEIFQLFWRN

[7] = biological target: T4, Amine oxidase [flavin-containing] A (Homo sapiens, UniProt P21397); assay type: functional
T4 sequence (P21397 whole entry): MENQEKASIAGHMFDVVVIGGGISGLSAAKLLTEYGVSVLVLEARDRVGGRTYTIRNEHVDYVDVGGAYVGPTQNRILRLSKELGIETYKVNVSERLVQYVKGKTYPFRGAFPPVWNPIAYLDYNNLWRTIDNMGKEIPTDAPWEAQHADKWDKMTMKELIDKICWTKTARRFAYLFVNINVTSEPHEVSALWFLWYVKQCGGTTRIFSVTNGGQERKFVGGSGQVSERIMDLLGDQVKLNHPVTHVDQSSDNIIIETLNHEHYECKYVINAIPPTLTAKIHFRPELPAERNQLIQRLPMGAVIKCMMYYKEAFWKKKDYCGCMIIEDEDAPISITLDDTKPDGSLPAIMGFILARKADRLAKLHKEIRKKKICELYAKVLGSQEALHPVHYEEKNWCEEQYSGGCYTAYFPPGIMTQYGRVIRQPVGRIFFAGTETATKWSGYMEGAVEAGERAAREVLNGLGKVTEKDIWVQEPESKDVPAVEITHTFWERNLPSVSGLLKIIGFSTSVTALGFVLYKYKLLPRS

D(4) dopamine receptor = biological target: T5, D(4) dopamine receptor (Homo sapiens, UniProt P21917)
T5 sequence (P21917 whole entry): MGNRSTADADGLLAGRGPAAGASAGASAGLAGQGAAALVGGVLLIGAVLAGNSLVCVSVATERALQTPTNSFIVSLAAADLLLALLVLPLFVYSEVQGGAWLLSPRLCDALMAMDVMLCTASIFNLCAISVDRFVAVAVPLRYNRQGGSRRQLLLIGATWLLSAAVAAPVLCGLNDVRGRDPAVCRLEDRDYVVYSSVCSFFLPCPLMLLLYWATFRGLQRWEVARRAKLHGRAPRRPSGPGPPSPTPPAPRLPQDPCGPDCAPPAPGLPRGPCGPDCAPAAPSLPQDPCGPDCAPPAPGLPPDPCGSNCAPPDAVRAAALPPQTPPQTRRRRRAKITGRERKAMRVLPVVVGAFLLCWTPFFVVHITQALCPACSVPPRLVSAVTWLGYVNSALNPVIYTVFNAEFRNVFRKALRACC

Vasopressin V2 receptor = Vasopressin V2 receptor (Homo sapiens, UniProt P30518)
Sequence of Vasopressin V2 receptor (P30518 whole entry): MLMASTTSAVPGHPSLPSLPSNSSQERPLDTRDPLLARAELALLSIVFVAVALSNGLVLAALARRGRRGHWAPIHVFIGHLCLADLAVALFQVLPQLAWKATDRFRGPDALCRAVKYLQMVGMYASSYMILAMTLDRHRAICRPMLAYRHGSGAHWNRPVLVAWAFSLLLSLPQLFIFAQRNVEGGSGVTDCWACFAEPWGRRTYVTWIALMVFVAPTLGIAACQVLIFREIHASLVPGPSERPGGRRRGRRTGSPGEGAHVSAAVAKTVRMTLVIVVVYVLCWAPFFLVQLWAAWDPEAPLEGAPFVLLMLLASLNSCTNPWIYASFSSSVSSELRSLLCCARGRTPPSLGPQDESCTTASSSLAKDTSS

[8] = biological target: Vascular endothelial growth factor receptor 2 (Homo sapiens, UniProt P35968); assay type: functional
[9] = biological target: Voltage-dependent N-type calcium channel subunit alpha-1B (Rattus norvegicus, UniProt Q02294); assay type: functional
Sequence of Voltage-dependent N-type calcium channel subunit alpha-1B (Q02294 whole entry): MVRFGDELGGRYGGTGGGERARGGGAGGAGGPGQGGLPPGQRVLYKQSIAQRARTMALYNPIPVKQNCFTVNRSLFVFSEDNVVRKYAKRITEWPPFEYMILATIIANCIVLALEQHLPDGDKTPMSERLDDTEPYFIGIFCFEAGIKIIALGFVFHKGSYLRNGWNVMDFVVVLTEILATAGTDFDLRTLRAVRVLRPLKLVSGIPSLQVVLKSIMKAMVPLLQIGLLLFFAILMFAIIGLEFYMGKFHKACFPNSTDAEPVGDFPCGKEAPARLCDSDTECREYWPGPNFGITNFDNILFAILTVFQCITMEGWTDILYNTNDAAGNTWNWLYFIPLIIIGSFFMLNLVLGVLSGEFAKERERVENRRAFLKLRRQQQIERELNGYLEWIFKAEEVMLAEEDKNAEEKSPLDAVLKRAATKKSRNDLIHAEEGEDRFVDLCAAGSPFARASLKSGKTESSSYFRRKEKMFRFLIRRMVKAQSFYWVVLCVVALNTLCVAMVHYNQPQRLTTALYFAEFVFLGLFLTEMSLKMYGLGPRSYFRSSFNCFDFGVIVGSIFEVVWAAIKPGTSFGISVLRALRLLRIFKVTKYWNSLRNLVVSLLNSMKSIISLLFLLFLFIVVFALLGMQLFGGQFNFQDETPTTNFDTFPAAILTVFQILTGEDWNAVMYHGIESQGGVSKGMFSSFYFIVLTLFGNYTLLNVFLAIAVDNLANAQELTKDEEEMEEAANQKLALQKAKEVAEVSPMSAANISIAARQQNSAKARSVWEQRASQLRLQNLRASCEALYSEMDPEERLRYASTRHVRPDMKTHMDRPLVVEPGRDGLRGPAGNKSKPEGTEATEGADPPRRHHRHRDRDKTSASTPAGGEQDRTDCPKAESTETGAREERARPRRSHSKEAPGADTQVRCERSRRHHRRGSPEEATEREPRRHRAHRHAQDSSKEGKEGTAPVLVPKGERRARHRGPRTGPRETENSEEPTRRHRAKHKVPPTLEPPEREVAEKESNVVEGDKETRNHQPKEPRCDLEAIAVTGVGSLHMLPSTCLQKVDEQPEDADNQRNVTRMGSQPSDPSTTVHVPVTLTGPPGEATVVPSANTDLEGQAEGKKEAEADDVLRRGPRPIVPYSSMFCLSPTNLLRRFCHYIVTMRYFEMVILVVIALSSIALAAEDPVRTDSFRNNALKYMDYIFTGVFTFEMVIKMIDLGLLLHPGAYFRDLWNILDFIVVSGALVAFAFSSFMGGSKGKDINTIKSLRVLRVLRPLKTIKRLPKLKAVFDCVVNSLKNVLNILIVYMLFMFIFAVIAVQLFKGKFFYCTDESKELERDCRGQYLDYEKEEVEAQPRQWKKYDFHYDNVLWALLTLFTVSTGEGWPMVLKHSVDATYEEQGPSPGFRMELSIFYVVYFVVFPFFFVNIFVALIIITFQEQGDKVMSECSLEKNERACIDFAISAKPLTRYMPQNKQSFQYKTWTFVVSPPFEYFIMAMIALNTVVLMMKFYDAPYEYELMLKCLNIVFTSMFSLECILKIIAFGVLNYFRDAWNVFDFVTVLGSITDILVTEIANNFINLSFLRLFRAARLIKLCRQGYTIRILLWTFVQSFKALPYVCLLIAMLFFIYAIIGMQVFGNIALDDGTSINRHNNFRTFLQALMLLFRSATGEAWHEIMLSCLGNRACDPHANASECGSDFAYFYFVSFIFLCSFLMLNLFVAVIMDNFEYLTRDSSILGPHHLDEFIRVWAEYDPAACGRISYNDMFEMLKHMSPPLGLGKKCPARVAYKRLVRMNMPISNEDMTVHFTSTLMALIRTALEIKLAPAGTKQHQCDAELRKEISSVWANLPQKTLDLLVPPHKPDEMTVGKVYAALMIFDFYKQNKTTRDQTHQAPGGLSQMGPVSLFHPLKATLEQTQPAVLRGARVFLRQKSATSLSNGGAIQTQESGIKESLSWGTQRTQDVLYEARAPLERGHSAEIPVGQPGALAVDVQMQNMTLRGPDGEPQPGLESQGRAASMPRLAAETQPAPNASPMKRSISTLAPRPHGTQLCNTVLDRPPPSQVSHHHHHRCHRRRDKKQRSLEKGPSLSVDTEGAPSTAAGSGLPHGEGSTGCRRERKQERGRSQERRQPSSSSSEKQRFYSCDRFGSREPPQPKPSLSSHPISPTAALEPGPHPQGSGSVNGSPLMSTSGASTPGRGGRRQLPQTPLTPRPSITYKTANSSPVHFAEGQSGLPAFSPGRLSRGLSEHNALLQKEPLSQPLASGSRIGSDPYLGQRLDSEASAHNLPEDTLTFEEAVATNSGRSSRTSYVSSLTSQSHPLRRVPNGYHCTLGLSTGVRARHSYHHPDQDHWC

[10] = biological target: 5-hydroxytryptamine receptor 2A (Homo sapiens, UniProt P28223); assay type: functional, cell-based
Sequence of 5-hydroxytryptamine receptor 2A (P28223 whole entry): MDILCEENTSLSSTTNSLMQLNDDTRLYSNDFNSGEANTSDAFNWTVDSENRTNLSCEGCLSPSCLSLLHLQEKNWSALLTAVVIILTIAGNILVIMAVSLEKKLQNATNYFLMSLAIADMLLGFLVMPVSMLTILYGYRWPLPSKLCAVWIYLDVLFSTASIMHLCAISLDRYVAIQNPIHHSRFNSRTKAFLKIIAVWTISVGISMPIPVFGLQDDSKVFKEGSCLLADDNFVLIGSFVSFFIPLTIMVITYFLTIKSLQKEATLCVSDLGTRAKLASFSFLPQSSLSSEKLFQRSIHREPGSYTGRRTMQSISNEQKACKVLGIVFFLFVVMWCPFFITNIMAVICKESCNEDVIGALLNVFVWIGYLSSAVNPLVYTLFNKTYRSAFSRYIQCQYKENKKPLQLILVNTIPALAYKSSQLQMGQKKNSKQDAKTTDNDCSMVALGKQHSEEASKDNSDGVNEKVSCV
Note: assay procedure not described here.

Compound	AC50 [1] [µM]	AC50 [2] [µM]	AC50 [3] [µM]	AC50 [4] [µM]	AC50 [5] [µM]	AC50 [6] [µM]	AC50 (B1 bradykinin receptor) [µM]	AC50 [7] [µM]	AC50 (D(4) dopamine receptor) [µM]	AC50 (Vasopressin V2 receptor) [µM]	AC50 [8] [µM]	AC50 [9] [µM]	AC50 [10] [µM]
CN(C)CCC=C1c2ccccc2C(C)(C)c2ccccc21	> 30	11	0.24	–	–	–	–	–	–	–	–	–	–
NCC(CC(=O)O)c1ccc(Cl)cc1 (stereo unspecified) [BACLOFEN]	> 30	–	–	> 30	> 30	> 30	> 30	> 30	> 10	> 30	> 30	> 10	–
CC(C)C[C@H]1C(=O)N2CCC[C@H]2[C@]2(O)O[C@](NC(=O)[C@@H]3C=C4c5cccc6[nH]c(Br)c(c56)C[C@H]4N(C)C3)(C(C)C)C(=O)N12 [BROMOCRIPTINE]	> 30	–	–	–	> 30	4.61	> 30	> 30	–	> 30	> 30	> 10	–
O=C(OCC(O)CO)c1ccccc1Nc1ccnc2cc(Cl)ccc12 (stereo unspecified) [GLAFENINE]	> 30	> 30	> 30	13.5	> 30	> 30	–	> 30	–	–	6.96	–	> 30
C[C@H]1CNCCc2ccc(Cl)cc21 [LORCASERIN]	> 30	5.7	–	–	–	–	–	–	–	–	–	–	–
C[C@@H](O)[C@H]1C(=O)N2C(C(=O)O)=C(S[C@@H]3CN[C@H](C(=O)N(C)C)C3)[C@H](C)[C@H]12 [MEROPENEM]	> 300	–	–	–	–	–	–	–	–	> 10	–	–	–
CNC1Cc2ccccc2N(C)c2ccccc21 (stereo unspecified) [METAPRAMINE]	> 30	29	14	–	–	–	–	–	–	–	–	–	14
COc1ccc(CC(C)(C)NC[C@H](O)c2cc(O)cc3c2OCC(=O)N3)cc1 [OLODATEROL]	> 30	> 30	0.0608	–	–	–	–	–	–	–	–	–	12.8
CCCN1C[C@H](CSC)C[C@@H]2c3cccc4[nH]cc(c34)C[C@H]21 [PERGOLIDE]	> 30	–	–	–	–	–	> 30	–	–	> 30	–	> 10	–
C1CCC(C(CC2CCCCN2)C2CCCCC2)CC1 (stereo unspecified) [PERHEXILINE]	> 30	–	–	–	–	–	–	–	–	–	–	–	–
c1cnc(N2CCN(Cc3ccc4c(c3)OCO4)CC2)nc1 [PIRIBEDIL]	> 30	–	12	–	–	–	–	–	–	–	–	–	> 30
Cc1c(C(=O)NN2CCCCC2)nn(-c2ccc(Cl)cc2Cl)c1-c1ccc(Cl)cc1 [RIMONABANT]	> 30	23	> 30	–	–	–	> 30	–	> 10	> 30	–	> 10	3.7
Cn1nnc2c(C(N)=O)ncn2c1=O [TEMOZOLOMIDE]	> 30	> 30	> 30	–	–	–	> 30	–	> 10	> 30	–	> 10	> 30
